Laboratory results: patent US10441668B2, “System and method for enhanced mass spectrometry imaging” (University Health Network, priority 2014, dated 2019)
Values joined by “and” are separate entries in the source; they are usually repeats but may differ in a detail not shown here. Equal values may be shown once.

Columns and labels:
breast cancer tumors = test: kinetic DCE magnetic resonance imaging of contrast agent passively targeted to breast cancer tumors in live mice; format: in vivo; settings: intravenous injection into tail vein
Experimental: Referring now to FIGS. 3A and 3B, shown therein are the results of kinetic DCE magnetic resonance imaging of an exogenous contrast agent (in this example Gadoteridol) that was passively targeted to breast cancer tumors in live mice. In both cases, Gadoteridol was intravenously injected into the tail vein of mice under anesthesia with isofluorane.
A first MR image 305 was taken at the time of injection. […] A second MR image 310 was taken at 5 minutes post injection.
As indicated by legend 322, the maximum signal intensity appears to reach its peak in plot 320 after 5 minutes. The exogenous agent was seen to penetrate and diffuse into the tumor core from the peripheries of the tumor.
A second MR image 345 was taken at 5 minutes post injection.
(§1) To obtain the images shown below in FIGS. 5A-5C and FIGS. 6A-6C, SCID mice (from Harlan Laboratories) were inoculated in the lower mammary fat pad with 3×106 human MDA-MB-231 triple negative metastatic breast cancer cells and housed for 3 weeks to grow tumors up to 1 cm in diameter (caliper measurements). […] Throughout the imaging sessions, the animals' breathing was monitored using a respiratory pad and a respiratory tracking system (when imaged on the 1T Aspect or 7T Bruker MRI system, ˜30 min per imaging session).

[1] = tested on: human MDA-MB-231 breast cancer tumors; test: two-dimensional DESI-MS imaging of contrast agent distribution in excised human breast cancer tumor slices; format: in vivo, SCID mice; settings: 5 minutes post injection, DESI-MS images vs H&E stained images
Experimental: All the DESI-MS experiments described herein were performed using a Thermo Fisher Scientific LTQ mass spectrometer (San Jose, Calif., USA). Data was acquired and processed using QualBrowser Xcalibur 2.0 (Thermo Fisher Scientific). Mass spectra were acquired as full scans, in the positive ion mode, over the mass to charge ratio range from m/z 500 to 900. Typical instrumental parameters used were 4.5 kV capillary voltage and 275° C. capillary temperature. An H2O-MeOH (1:1) solution was used as the spray solvent and delivered at the flow rate of 1.5 μL min-1. Methanol (MeOH) and ultra-pure water (H2O), both HPLC-MS grade, were purchased from Sigma Aldrich (Oakville, ON, Canada). The sprayer-to-surface distance was 1.0 mm, the sprayer to inlet distance was 6-8 mm, an incident spray was set at 54°, and a collection angle of 10° was used. […]
as §1, with “session). […]” for “session).”

breast cancer tumor = test: ICP-MS quantification of Gd in sections of breast cancer tumor after acid extraction; format: in vivo, mice; settings: 200 μm thick tumor slice
Text: Referring now to FIG. 10B, shown therein are the results of quantitative analysis of the distribution of an exogenous agent in a section of a breast cancer tumor. Here, ICP-MS was used to quantify the amount of Gadolinium (Gd) element in a 200 um thick section of the breast cancer tumor shown in FIG. 10A. The distribution of all three contributing Gadoteridol adducts (discussed above with reference to FIG. 4) are shown overlaid on an image of the tumor section.
To validate the ion abundances shown in the DESI-MS image 1000, a 200 μm think-slice of tumor was sectioned into three areas (1025, 1030 and 1040). The total tissue weight in each section was determined using an analytical balance and Gadoteridol was acid extracted for ICP-MS quantification. Gadoteridol was extracted using excess volume (e.g., 3.5 mls for every 1 mg tissue material in two rounds) of 10% perchloric acid through mixing and vortexing followed by a 30 min centrifugation at 21,000G taking the supernatant that was then diluted 5× with double distilled water. For ICP-MS analysis both the standard Gadoteridol solutions and the extracted samples were taken up in excess 2% nitric acid (1000 fold dilution) and were subjected to ICP-MS quantification using a Nexlon 350 ICP-MS (Perkin-Elmer).

CC(O)CN1CCN(CC(=O)[O-])CCN(CC(=O)[O-])CCN(CC(=O)[O-])CC1.[Gd+3] (centres unmarked) [Gadoteridol]
time post injection at which the tumor site exhibits maximal contrast enhancement (MR signal intensity peak) (breast cancer tumors): 5 min and < 5 min | signal in necrotic region of the breast cancer tumor [1]: no Gadoteridol signal | absolute value of Gd element in tumor section, first area 1025 (breast cancer tumor; first area 1025, ICP-MS): 54 pg | absolute value of Gd element in tumor section, second area 1030 (breast cancer tumor; second area 1030, ICP-MS): 12.8 pg | absolute value of Gd element in tumor section, third area 1040 (breast cancer tumor; third area 1040, ICP-MS): 27.5 pg
